“Also recorded” adds a separate entry of the source.
How the values were obtained:
[1] = Syringability testing (200 g weight on BD 1-mL syringe plunger, 27 G needle); type: physicochemical; settings: for Syringability: time to expel 1 mL: 50% diluted solution
Experimental: Syringability testing was carried out by applying 200 g of weight on top of a BD 1-mL syringe plunger and measuring the time required to expel 1 mL of the saturated solutions through a 27 G needle. The times are recorded in TABLE 4. At T=0, 43 seconds were required to expel 1 mL of Compound 2, while 8 seconds were required to expel 1 mL of Compound 4. In contrast, approximately 5 minutes were required to expel only 0.1 mL of Compound 3, based on the very high viscosity of the solution relative to that of the other two.
Syringability test results of the 50% diluted solutions (TABLE 5) indicated a slight increase in viscosity (syringability test for water was 10 sec). All three solutions remained easily syringable.

[2] = Solubility testing in water by portionwise addition until saturation; type: physicochemical
Experimental: The solubility of compounds 2-4 was determined by portionwise addition of the compounds to water until saturation was obtained. Water (10 mL) was added to a 20-mL vial. About 100 mg of Compound 2 was added. The suspension was stirred at room temperature for 20 minutes until the contents became a clear solution. Compound 2 (˜100 mg portionwise) was added repeatedly with 30 min stirring time between the additions. Once a suspension was obtained after continuous stirring for 2 hours, the suspension was stirred overnight. The same procedure was used for the suspension preparations of Compound 3 and Compound 4.
After stirring overnight, filtration of each sample was attempted.
An aliquot of the suspension of Compound 2 was filtered through a 0.22 micron inline syringe filter.
About 1 mL of the aqueous solutions prepared above was diluted with water by 50%. The pH of the 50% diluted solutions was adjusted to pH 7 either by 0.1 N HCl or by 0.1 N NaOH. Solubility values for the three compounds in the solutions/suspensions before and after dilution are given in the in TABLE 3.
The solubility of Compounds 2-4 was determined by portionwise addition of the compounds to water until saturation was obtained. After stirring overnight, the suspensions were filtered and analyzed by HPLC. […] The solubility of Compound 3 was >200 mg/mL. The absolute solubility of Compound 3 was not determined because in the course of analysis, the solution of Compound 3 became too viscous to stir. […] The 50% diluted solutions of Compounds 2-4 were not viscous, and the compounds remained in solution for 4 weeks. […] All of the diluted solutions were easily syringable over 4 weeks' time.

[3] = HPLC purity analyses of aqueous solutions over time at room temperature (chemical stability); type: physicochemical
[4] = system: phospho-Akt1 (pAkt); experiment: Phospho-Akt activation assay in human umbilical vein endothelial cells (Western blot); type: cell-based
Experimental: The ability of the small molecule analogues as shown in EXAMPLES 1-3 to stimulate production of phospho-Akt1 (pAkt) was tested. Akt plays a critical role in controlling cell survival and apoptosis, and Akt phosphorylation is increased by the activation of Tie-2. Akt activation can be detected by an antibody that recognizes phosphorylation on the serine 473 residue on Akt.
HUVECs were seeded at 500,000 cells/mL in chemically-defined basal media, and supplemented with distinct growth factors (EGM-2). The following growth factors were required for survival and normal phenotypic expression of endothelial characteristics: fetal bovine serum 2%, hydrocortisone, human fibroblast growth factor-B, vascular endothelial growth factor, recombinant insulin growth factor R3, ascorbic acid, human epidermal growth factor, gentamicin sulfate, amphotericin B, and heparin. Cells were derived from one donor, cultivated in 10 cm dishes, and expanded upon reaching 90% confluence. After three passages, the cells were expanded and ready for testing.
The cells were seeded at 25,000 cells/mL in 6-well plates, and covered with 2 mL of complete media. The cells were fed on day 2 of culture with 2 mL of fresh EGM-2 media. 72 hours after plating, the cells were serum starved by rinsing twice with 2 mL of sterile phosphate buffered saline, and then placed at 37° C. for 3 hours in the presence of basal EGM-2 media (1.5 mL/well without growth factors). The serum starvation allowed the cells to become quiescent.
Compounds 2-4 were dissolved in distilled deionized water at the following concentrations: • Compound 2 (Molecular weight: 622.7): 31 mg/ml. • Compound 3 (Molecular weight: 622.7): 26 mg/ml. • Compound 4 (Molecular weight: 636.7): 32 mg/ml.
All compounds were stored at 4° C. […] Stock concentrations of the above molecules were made at a final working concentration of 1 mM. Specific microliter volumes of the working concentration were added to each 6 well plate at the following concentrations: 3, 10, and 30 micromolar (μM). Cells were treated for 30 minutes.
10× cell lysis buffer was diluted fresh with dH2O. The 1× cell lysis buffer contained: 20 mM Tris-HCl (pH 7.5), 150 mM NaCl, 1 mM Na2EDTA, 1 mM EGTA, 1% Triton, 2.5 mM sodium pyrophosphate, 1 mM β-glycerophosphate, 1 mM Na3VO4, 1 μg/ml leupeptin, and 1 mM PMSF. Immediately before use, 1 mM PMSF was prepared by diluting from a stock of 1 M PMSF made up in DMSO. In addition, a 1× concentration of a Halt protease & phosphatase inhibitor cocktail was included. At the end of the 30 minute treatment, the media was discarded from the cell culture wells by shaking out, and the remaining media was aspirated off the wells. Ice-cold lysis buffer was added at 140 μL/well, and the culture was placed on ice or in a cold room for 30 minutes while rocking. Cell lysates were collected using a cell scraper, placed in microfuge tubes, and stored at −80° C. The levels of protein were quantitated using a microtiter plate BCA protein assay.
2× Laemmli sample buffer was added in equal volume to the […] cell lysis buffer, which contained the lysed endothelial cells. The solution was heated at 100° C. for 5 minutes and then sonicated for 10 seconds. After sonication, the lysates were spun by centrifuge at 4° C. for 5 minutes at 17,000 rpm. 70-100 μg of protein calculated from BCA assay prior to addition of 2× Laemmli sample were added per well of an 8% polyacrylamide gel.
Electrophoresis was performed at 150 volts for approximately 90 minutes at room temperature with 1× Laemmli running buffer. The proteins from the gel were transferred to nitrocellulose at 100 volts for 45 minutes on ice.
The nitrocellulose membranes were removed quickly without drying and placed in phosphate buffered saline (pH 7.3) with 1% nonfat dried milk. The membranes were blocked in the milk solution while rocking for 2 hours at room temperature or overnight at 4° C. […]

[5] = Physical stability (appearance) of the aqueous solutions standing at room temperature; type: physicochemical; settings: for Appearance of solution: undiluted

With COC(=O)N[C@@H](Cc1ccccc1)C(=O)N(C)[C@@H](Cc1ccc(NS(=O)(=O)[O-])cc1)c1csc(-c2cccs2)n1.[Na+] [Compound 3, sodium (4-{(S)-2-{(S)-2-[(methoxycarbonyl)amino]-N-methyl-3-phenylpropanamido}-2-[2-(thiophen-2-yl)thiazol-4-yl]ethyl}phenyl)sulfamate] the “Syringability: time to expel 1 mL” value ([1]; T = 2 week) was 12 s, the “Syringability: time to expel 1 mL” value ([1]; T = 3 week) was 13 s and the “Syringability: time to expel 1 mL” value ([1]; T = 4 week) was 15 s. For the same molecule, the “Syringability: time to expel 1 mL” value ([1]; T = 2 day) was 13 s, the “Syringability: time to expel 1 mL” value ([1]; T = 3 day) was 14 s and the “Syringability: time to expel 1 mL” value ([1]; T = 4 day) was 17 s. The “Syringability: time to expel 1 mL” value ([1]; T = 7 day) was 15 s, the “Syringability of the saturated solutions (in words)” value ([1]; undiluted solutions) was “too viscous to syringe” and the “Physical state of the preparation” value ([2]; 50% dilution, T = 4 weeks) was “(solution)”. For the same molecule, the “Physical state of the preparation” value ([2]; Before dilution, T = 0) was “(viscous solution)”, the “Solubility value in water” value ([2]; Before dilution, T = 5 weeks, room temperature) was “No change*” and the “Amount (g) of compound added until saturation” value ([2]; added portionwise to 10 mL water, room temperature) was 2.323 g. The Physical appearance ([2]; after portionwise addition to 10 mL water) was “hazy, highly viscous mixture; also recorded: No precipitate”, the Filtration ([2]; filtration of the sample attempted after stirring overnight) was “not filtered successfully and No” and the solubility at 4 weeks ([2]; water, pH 7, aqueous buffer, 50% dilution with water, adjusted to pH 7, T = 4 weeks) was over 115 mg/mL. For the same molecule, the solubility at 0 weeks ([2]; water, thermodynamic from solid, Before dilution, T = 0, estimated from weight added) was over 230 mg/mL, the solubility ([2]; water, thermodynamic from solid, Conclusions: suspensions stirred overnight, filtered and analyzed by HPLC, initial) was over 200 mg/mL and the HPLC purity ([3]; 50% diluted samples, room temperature, T = 4 weeks) was 97.9%. It also gave an HPLC purity ([3]; undiluted samples, T = 0 (dry sample)) of 99.08%, an HPLC purity ([3]; undiluted samples, room temperature, T = 5 weeks) of 97.3% and an HPLC purity ([3]; undiluted samples, room temperature, T = 1 day) of 98.26%. For the same molecule, the “pAkt signal above control” value ([4]; HUVECs, 30 μM, 30 minutes treatment) was 80%, the “Relative potencies for activation of pAkt” value ([4]; HUVECs, 3, 10 and 30 μM) was “Compound 2>Compound 4>Compound 3” and the “Gelation or precipitation of undiluted solution” value ([5]; throughout the 4-week study period (Compound 2: over 5 weeks)) was “No gelation or precipitation”. The Appearance of solution ([5]; T = 0) was “Hazy”, the Appearance of solution ([5]; T = 2 week) was “Hazy” and the Appearance of solution ([5]; T = 3 week) was “Hazy”. For the same molecule, the Appearance of solution ([5]; T = 4 week) was “Hazy”, the Appearance of solution ([5]; T = 1 day) was “Hazy” and the Appearance of solution ([5]; T = 2 day) was “Hazy”. For the same molecule, the Appearance of solution ([5]; T = 3 day) was “Hazy”, the Appearance of solution ([5]; T = 4 day) was “Hazy” and the Appearance of solution ([5]; T = 5 day) was “Hazy”. For the same molecule, the Appearance of solution ([5]; T = 6 day) was “Hazy”.
In the case of CCc1csc([C@H](Cc2ccc(NS(=O)(=O)O)cc2)NC(=O)[C@H](Cc2ccccc2)NC(=O)OC)n1 [Compound 5, 4-{(S)-2-[(S)-2-(methoxycarbonylamino)-3-phenylpropanamido]-2-(4-ethylthiazol-2-yl)ethyl}phenylsulfamic acid, reference compound], the “pAkt levels above control” value ([4]; HUVECs, highest dose 10 μM, two separate experiments) is reported as 278%.

Reference: US12187715B2, “Small molecule activators of Tie-2” (EyePoint Pharmaceuticals, Inc., priority 2019, dated 2025)
